Legend:
[1] = Stability of a mix of the 9 TE at pH 2.2 with 200 mM malic acid in a glass bottle; type: physicochemical; settings: heat sterilized, about 3 ppm dissolved oxygen; for Concentration recovered, T6 M 5° C. / Percentage of the recovered TE, T6 M 5° C.: 6 months at 5° C.; for Concentration recovered, T6 M 5° C. / Concentration recovered, T6 M 40° C.: pH 2.2, 200 mM malic acid; for Percentage of the recovered TE, T6 M 5° C. / Percentage of the recovered TE, T6 M 40° C.: relative to theoretical concentration; for Concentration recovered, T6 M 40° C. / Percentage of the recovered TE, T6 M 40° C.: 6 months at 40° C.
Protocol: The presence of oxygen promotes selenite stability. To ensure that it is not deleterious to another TE the stability of a mix of the 9 TE of interest (i.e. Zn, Cu, Cr, Mo, Mn, Fe, I, F & Se) was evaluated at pH 2.2 with 200 mM of malic acid (to ensure Iodide stability) and stored in a glass bottle (so containing about 3 ppm of dissolved oxygen). The solution was heat sterilized and stored 6 months at 40° C. or 5° C. (T6M 40° C. and T6M 5° C., respectively).

[2] = cited from earlier work
[3] = Full factorial DoE on the stability of Selenite (container material, pH, sterilization, storage temperature, dissolved oxygen); type: physicochemical
Protocol: A full factorial DoE was designed to evaluate the impact of five factors on the stability of Selenite:
Container material: an interaction between Selenite and plastic bags material was previously highlighted. To evaluate this factor a neutral material i.e. glass bottles was used as a comparison to plastic bags.
pH of the solution: all previous studies were conducted at pH<3.5 to ensure stability of Fe. A comparison with a native pH>7 obtained by simple dilution of Selenite into MilliQ water allowed to evaluate the impact of this parameter.
Sterilization: the terminal heat sterilization conducted on samples may initiate degradative chemical reactions by heat exposure. Unsterilized VS sterilized samples were compared regarding Selenite stability to assess the impact of this process step.
Storage temperature: accelerated stability studies are classically conducted at 40° C. However, selenite might be sensitive to it and a comparison with samples stored at 5° C. was conducted.
Dissolved oxygen content: oxygen is involved in many redox reactions most of the time deleterious for macro and micronutrients (particularly vitamins). To assess the impact of this parameter on Selenite stability, solutions of Selenite were flushed either with oxygen (up to saturation at about 8 ppm) or with nitrogen (DO<0.5 ppm).
All combinations of factors were produced and stored under appropriate conditions for 6 months. They were then submitted to several tests to evaluate the impact of each factor on several responses.
The following readouts were performed in order to assess the impact of the factors listed above:
Se assay to evaluate the degradation of Selenium.
Visual inspection of the samples to detect any precipitate, particles or discoloration.
pH measurement to evaluate the evolution of sample pH after 6 months storage.
Dissolved oxygen measurement to evaluate the evolution of the dissolved oxygen after 6 months of storage. […]

Concentration recovered, T6 M 5° C. [1]	Concentration recovered, T6 M 40° C. [1]	SMILES	Percentage of the recovered TE, T6 M 5° C. [1]	Percentage of the recovered TE, T6 M 40° C. [1]	Chemical form; Solubility in water [2]	Stability in solution ([3]; absence of stable amount of DO in the said range, storage for more than 1-3 months)	Stability in solution ([3]; products with stable DO concentration of above 0.5 ppm, specifically 0.5 ppm to 8 ppm)	Oxygen amount sufficient to ensure the stability of Selenite in solution ([3]; regression of Se assay against log dissolved oxygen, sterilized samples stored at 40° C. (FIG. 2))
–	–	[F-].[Na+] [F, sodium fluoride]	94%	88%	–	–	–	–
–	–	O=[Se](O)O [Selenite, sodium selenite]	–	–	–	instable	stable	around 0.5 ppm
9784 ng/mL	10504 ng/mL	[Cl][Cu][Cl] [Cu, copper chloride]	81.1%	87.1%	706 mg/mL	–	–	–
653 ng/mL	707 ng/mL	[Na+].[Na+].[O]=[Mo](=[O])([O-])[O-] [Mo, sodium molybdate]	79.9%	86.6%	–	–	–	–
3167 ng/mL	3401 ng/mL	[I-].[K+] [I, potassium iodide]	78.6%	84.4%	–	–	–	–

SMILES	Concentration recovered, T6 M 5° C. [1]	Concentration recovered, T6 M 40° C. [1]	Percentage of the recovered TE, T6 M 5° C. [1]	Percentage of the recovered TE, T6 M 40° C. [1]	Chemical form; Solubility in water [2]	Stability in solution ([3]; absence of stable amount of DO in the said range, storage for more than 1-3 months)	Stability in solution ([3]; products with stable DO concentration of above 0.5 ppm, specifically 0.5 ppm to 8 ppm)	Oxygen amount sufficient to ensure the stability of Selenite in solution ([3]; regression of Se assay against log dissolved oxygen, sterilized samples stored at 40° C. (FIG. 2))
[Cl][Cr]([Cl])[Cl] [Cr, chromium chloride]	306 ng/mL	329 ng/mL	77.3%	83.1%	585 mg/mL	–	–	–
[Cl-].[Cl-].[Zn+2] [Zn, zinc chloride]	158347 ng/mL	171822 ng/mL	77.8%	84.4%	4.32 kg/L	–	–	–
